Paper PMC6435570, “Zafirlukast Is a Dual Modulator of Human Soluble Epoxide Hydrolase and Peroxisome Proliferator-Activated Receptor γ” (Frontiers in Pharmacology, 2019)

Molecular target: T1, recombinant human sEH (Homo sapiens, UniProt P34913)
T1 sequence (P34913 1-555): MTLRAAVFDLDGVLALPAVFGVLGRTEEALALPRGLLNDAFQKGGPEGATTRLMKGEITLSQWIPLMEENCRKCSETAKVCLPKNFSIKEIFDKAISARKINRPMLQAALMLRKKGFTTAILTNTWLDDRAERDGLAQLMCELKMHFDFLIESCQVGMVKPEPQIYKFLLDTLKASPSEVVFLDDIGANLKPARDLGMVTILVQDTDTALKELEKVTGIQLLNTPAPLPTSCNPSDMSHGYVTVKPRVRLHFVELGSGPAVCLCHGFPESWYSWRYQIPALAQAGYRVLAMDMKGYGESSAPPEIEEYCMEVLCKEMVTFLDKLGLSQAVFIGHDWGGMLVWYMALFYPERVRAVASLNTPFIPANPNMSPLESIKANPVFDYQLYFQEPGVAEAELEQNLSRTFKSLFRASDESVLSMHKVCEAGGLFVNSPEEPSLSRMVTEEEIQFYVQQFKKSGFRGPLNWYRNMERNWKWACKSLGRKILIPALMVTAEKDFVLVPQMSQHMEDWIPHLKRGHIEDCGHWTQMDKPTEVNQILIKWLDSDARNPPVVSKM
Test: Recombinant sEH activity (PHOME fluorescence assay)
Format: biochemical
Conditions: PHOME 50 μM, 30 min preincubation at RT, read-out: sEH rec. IC50
Procedure: For determination of IC50 values of recombinant human sEH a 96-well fluorescence-based assay system was used as described before ([Blöcher et al., 2016a]). In brief, non-fluorescent PHOME (3 phenylcyano-(6-methoxy-2-naphthalenyl)methyl ester 2-oxiraneacetic acid, Cayman Chemicals, Ann Arbor, MI, United States) was used as substrate, which is hydrolyzed by sEH to the fluorescent 6-methoxynaphthaldehyde ([Rau et al., 2006]). The formation of the fluorescent product was measured (λem = 330 nm, λex = 465 nm) by an Infinite F200 Pro plate reader (Tecan Group Ltd., Männedorf, Switzerland). For that purpose, 2 μg recombinant human sEH in 100 μl bis-Tris buffer (pH 7, 0.1 mg/mL BSA, 0.01% Triton-X 100) was applied per well. This protein solution was then incubated with different concentrations of the test compounds for 30 min at RT. After this, 10 μL of the substrate were added (final concentration 50 μM). The formation of 6-methoxynaphthaldehyde was monitored for 30 min. All concentrations were tested in triplicate wells.

COc1cc(C(=O)NS(=O)(=O)c2ccccc2C)ccc1Cc1cn(C)c2ccc(NC(=O)OC3CCCC3)cc12 [Zafirlukast, zafirlukast]
IC50: 1970 ± 80 nM
